In patent publication US20250034167A1, “HETEROCYCLIC COMPOUNDS AND METHODS OF USE” (AMGEN INC., priority 2021, published 2025):
Like-named read-outs stand apart in the source and are kept apart here.

Columns and labels:
[1] = tested on: Phosphorylation of ERK1/2 in AsPC-1 cells; assay: Phospho-ERK1/2 MSD Assay; assay type: cell-based
Procedure: Sixteen hours prior to compound treatment, AsPC-1 cells were seeded in 96-well cell culture plates at a density of 25,000 cells/well and incubated at 37° C., 5% CO2. A compound dose-response titration was diluted in growth media, added to appropriate wells of a cell culture plate, and then incubated at 37° C., 5% CO2 for 2 hours.

[2] = biological target: His-tagged KRAS G12D protein (Homo sapiens, UniProt P01116, G12D); assay: biochemical
Procedure: The plate was incubated for 30 minutes at room temperature. Biotinylated KRPep-2d substrate (Amgen) was diluted to nM in Assay Buffer and 2 μL was added to all wells and incubated for 1 hour at room temperature. Detection Reagent (0.4 nM LANCE Eu-W1024 Anti-6×His (Perkin Elmer AD0401), 5 nM streptavidin-d2 (Cisbio 610SADLA)) was prepared in Assay Buffer, then 4 µL was added to the plate and incubated for 1 hour at room temperature.

[3] = Homo sapiens, ASPC1, 2 h, read-out: 2 h p-ERK (AsPC-1 cells), IC50, AsPC-1 cells, 2 h compound treatment

Chain of His-tagged KRAS G12D protein (P01116 1-188 isoform P01116-2 G12D): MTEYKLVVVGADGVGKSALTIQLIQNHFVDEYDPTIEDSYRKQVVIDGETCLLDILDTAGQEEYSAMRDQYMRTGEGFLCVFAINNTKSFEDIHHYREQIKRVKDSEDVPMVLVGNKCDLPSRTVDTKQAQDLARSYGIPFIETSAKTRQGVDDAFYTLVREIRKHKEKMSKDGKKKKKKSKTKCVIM

CCc1c(F)ccc2cc(O)cc(-c3ncc4c(N5CC6CCC(C5)C6O)nc(OC[C@@]56CCCN5C[C@H](F)C6)nc4c3F)c12 (stereo partly drawn) [Example 97, 3-(7-(8-Ethyl-7-fluoro-3-hydroxynaphthalen-1-yl)-8-fluoro-2-(((2R,7aS)-2-fluorotetrahydro-1H-pyrrolizin-7a(5H)-yl)methoxy)pyrido[4,3-d]pyrimidin-4-yl)-3-azabicyclo[3.2.1]octan-8-ol] was tested, and the IC50 [1, 3] was 1560 nM and the IC50 [2] was 33 nM.

CCc1c(F)ccc2cc(O)cc(-c3ncc4c(N5CC6CCC(C5)C6(C)O)nc(OC[C@@]56CCCN5C[C@H](F)C6)nc4c3F)c12 (stereo partly drawn) [Example 98, 3-(7-(8-Ethyl-7-fluoro-3-hydroxynaphthalen-1-yl)-8-fluoro-2-(((2R,7aS)-2-fluorotetrahydro-1H-pyrrolizin-7a(5H)-yl)methoxy)pyrido[4,3-d]pyrimidin-4-yl)-8-methyl-3-azabicyclo[3.2.1]octan-8-ol] was tested, and the IC50 [1, 3] was 2840 nM and the IC50 [2] was 80 nM.

In the case of CCc1c(F)ccc2cc(O)cc(-c3ncc4c(N5CCCCCCC5)nc(OC[C@@]56CCCN5C[C@H](F)C6)nc4c3F)c12 [Example 93, 4-(4-(Azocan-1-yl)-8-fluoro-2-(((2R,7aS)-2-fluorotetrahydro-1H-pyrrolizin-7a(5H)-yl)methoxy)pyrido[4,3-d]pyrimidin-7-yl)-5-ethyl-6-fluoronaphthalen-2-ol], the IC50 [1, 3] is reported as 100 nM and the IC50 [2] is reported as 2 nM.

With CCc1cccc2cc(O)cc(-c3ncc4c(N5CCC[C@@](C)(O)C5)nc(OC[C@@]56CCCN5C[C@H](F)C6)nc4c3F)c12 [Example 58, (R)-1-(7-(8-Ethyl-3-hydroxynaphthalen-1-yl)-8-fluoro-2-(((2R,7aS)-2-fluorotetrahydro-1H-pyrrolizin-7a(5H)-yl)methoxy)pyrido[4,3-d]pyrimidin-4-yl)-3-methylpiperidin-3-ol] the IC50 [1, 3] was 9 nM and the IC50 [2] was 1 nM.

In the case of CCc1c(F)ccc2cc(O)cc(-c3ncc4c(N5CCC6CC6(O)C5)nc(OC[C@@]56CCCN5C[C@H](F)C6)nc4c3F)c12 (stereo partly drawn) [Example 99, 3-(7-(8-Ethyl-7-fluoro-3-hydroxynaphthalen-1-yl)-8-fluoro-2-(((2R,7aS)-2-fluorotetrahydro-1H-pyrrolizin-7a(5H)-yl)methoxy)pyrido[4,3-d]pyrimidin-4-yl)-3-azabicyclo[4.1.0]heptan-1-ol], the IC50 [1, 3] is reported as 794 nM and the IC50 [2] is reported as 11 nM.

In the case of CCc1c(F)ccc2cc(O)cc(-c3ncc4c(N5CCC=CC(O)C5)nc(OC[C@@]56CCCN5C[C@H](F)C6)nc4c3F)c12 (stereo partly drawn) [Example 135, 1-(7-(8-Ethyl-7-fluoro-3-hydroxynaphthalen-1-yl)-8-fluoro-2-(((2R,7aS)-2-fluorotetrahydro-1H-pyrrolizin-7a(5H)-yl)methoxy)pyrido[4,3-d]pyrimidin-4-yl)-2,3,6,7-tetrahydro-1H-azepin-3-ol], the IC50 [1, 3] is reported as 81 nM and the IC50 [2] is reported as 1 nM.

In the case of C[C@@]1(O)CCCN(c2nc(OC[C@@]34CCCN3C[C@H](F)C4)nc3c(F)c(-c4cc(O)cc5cccc(C6CC6)c45)ncc23)C1 [Example 167, (R)-1-(7-(8-Cyclopropyl-3-hydroxynaphthalen-1-yl)-8-fluoro-2-(((2R,7aS)-2-fluorotetrahydro-1H-pyrrolizin-7a(5H)-yl)methoxy)pyrido[4,3-d]pyrimidin-4-yl)-3-methylpiperidin-3-ol], the IC50 [1, 3] is reported as 12 nM and the IC50 [2] is reported as 2 nM.

For C#Cc1c(F)ccc2cc(O)cc(-c3ncc4c(N5CCCC(C)(O)C5)nc(OCC56CCCN5CC(F)C6)nc4c3F)c12 [Example 52, (R)-1-(7-(8-Ethynyl-7-fluoro-3-hydroxynaphthalen-1-yl)-8-fluoro-2-(((2R,7aS)-2-fluorotetrahydro-1H-pyrrolizin-7a(5H)-yl)methoxy)pyrido[4,3-d|pyrimidin-4-yl)-3-methylpiperidin-3-ol], the IC50 [1, 3] was 8 nM and the IC50 [2] was 1 nM.

CCc1c(F)ccc2cc(O)cc(-c3ncc4c(N5CCCC[C@@H](O)C5)nc(OC[C@@]56CCCN5C[C@H](F)C6)nc4c3F)c12 [Example 129, (R)-1-(7-(8-Ethyl-7-fluoro-3-hydroxynaphthalen-1-yl)-8-fluoro-2-(((2R,7aS)-2-fluorotetrahydro-1H-pyrrolizin-7a(5H)-yl)methoxy)pyrido[4,3-d]pyrimidin-4-yl)azepan-3-ol] was tested, and the IC50 [1, 3] was 64 nM and the IC50 [2] was 1 nM.

Work on CCc1c(F)ccc2cc(O)cc(-c3ncc4c(N5CC6CC(C#N)C(C6)C5)nc(OC[C@@]56CCCN5C[C@H](F)C6)nc4c3F)c12 (single isomer, unassigned) [Example 146] yielded an IC50 ([1]; read-out: 2 h p-ERK (AsPC-1 cells), IC50, AsPC-1 cells, 2 h compound treatment) of 233 nM and an IC50 [2] of 2 nM.

For CCc1c(F)ccc2cc(O)cc(-c3ncc4c(N5C[C@@H](O)C[C@@H](F)C5)nc(OC[C@@]56CCCN5C[C@H](F)C6)nc4c3F)c12 (mixture of isomers) [Example 115, rac-(3S,5R)-1-(7-(8-Ethyl-7-fluoro-3-hydroxynaphthalen-1-yl)-8-fluoro-2-(((2R,7aS)-2-fluorotetrahydro-1H-pyrrolizin-7a(5H)-yl)methoxy)pyrido[4,3-d]pyrimidin-4-yl)-5-fluoropiperidin-3-ol], the IC50 [1, 3] was 83 nM and the IC50 [2] was 3 nM.

CCc1c(F)ccc2cc(O)cc(-c3ncc4c(N5CCCC(CO)(CCl)C5)nc(OC[C@@]56CCCN5C[C@H](F)C6)nc4c3F)c12 (stereo partly drawn) [Example 22, 4-(4-(3-(Chloromethyl)-3-(hydroxymethyl)piperidin-1-yl)-8-fluoro-2-(((2R,7aS)-2-fluorotetrahydro-1H-pyrrolizin-7a(5H)-yl)methoxy)pyrido[4,3-d]pyrimidin-7-yl)-5-ethyl-6-fluoronaphthalen-2-ol] gave an IC50 [1, 3] of 297 nM and an IC50 [2] of 4 nM.

Oc1cc(-c2ncc3c(N4CC5CC(O)C(C5)C4)nc(OC[C@@]45CCCN4C[C@H](F)C5)nc3c2F)c2c(F)c(F)ccc2c1 (stereo partly drawn) [Example 18, 3-(7-(7,8-Difluoro-3-hydroxynaphthalen-1-yl)-8-fluoro-2-(((2R,7aS)-2-fluorotetrahydro-1H-pyrrolizin-7a(5H)-yl)methoxy)pyrido[4,3-d]pyrimidin-4-yl)-3-azabicyclo[3.2.1]octan-6-ol] gave an IC50 [1, 3] of 105 nM and an IC50 [2] of 3 nM.

In the case of CCc1c(F)ccc2cc(O)cc(-c3ncc4c(N5CCCCC[C@@H]5C)nc(OC[C@@]56CCCN5C[C@H](F)C6)nc4c3F)c12 [Example 81, 5-Ethyl-6-fluoro-4-(8-fluoro-2-(((2R,7aS)-2-fluorotetrahydro-1H-pyrrolizin-7a(5H)-yl)methoxy)-4-((S)-2-methylazepan-1-yl)pyrido[4,3-d]pyrimidin-7-yl)naphthalen-2-ol], the IC50 [1, 3] is reported as 1160 nM and the IC50 [2] is reported as 19 nM.

For CCc1c(F)ccc2cc(O)cc(-c3ncc4c(N5CCC(=O)C(F)(F)CC5)nc(OC[C@@]56CCCN5C[C@H](F)C6)nc4c3F)c12 [Example 150, 1-(7-(8-Ethyl-7-fluoro-3-hydroxy-naphthalen-1-yl)-8-fluoro-2-(((2R,7aS)-2-fluorotetrahydro-1H-pyrrolizin-7a(5H)-yl)methoxy)pyrido[4,3-d]pyrimidin-4-yl)-5,5-difluoroazepan-4-one], the IC50 [1, 3] was 1430 nM and the IC50 [2] was 3 nM.

For CCc1cccc2cc(O)cc(-c3ncc4c(N5CC6CC(O)C(C6)C5)nc(OC[C@@]56CCCN5C[C@H](F)C6)nc4c3F)c12 (single isomer, unassigned) [Example 29], the IC50 [1, 3] was 31 nM and the IC50 [2] was 1 nM.
